In ChEMBL document CHEMBL1125942, “A potent, simple derivative of an analog of the CC-1065 alkylation subunit” (Bioorg Med Chem Lett, 1991):
Converted amounts (≈) assume the structure as drawn.

Assays:
[1] = tested on: L1210; assay: Concentration required for 50% cell growth inhibition against L1210 mouse lymphocytic leukemia; format: functional, cell-based
[2] = tested on: L1210; assay: Compound was tested for relative inhibitory concentration required for 50% cell growth inhibition against L1210 mouse lymphocytic leukemia to untreated controls; format: functional

Row | SMILES | IC50 [1] | Relative IC50 [2]
1 | OC1=CC2=NCC3CC23c2ccccc21 (racemic) | 2000 ng/mL (≈ 10100 nM) | 0.0005
2 | Cl.NNC(=O)N1CC(CCl)c2c1cc(O)c1ccccc21 (racemic) | 1 ng/mL | 1
3 | COc1c(O)c2c(c3cc(C(=O)N4CCc5c4c(O)c(OC)c4[nH]c(C(=O)N6C[C@H]7C[C@@]78C6=CC(=O)c6[nH]cc(C)c68)cc54)[nH]c13)CCN2C(N)=O [(+)-CC-1065] | 0.01 ng/mL (≈ 0.0142 nM) | 100

Results, then the compound that gave them:

Row | IC50 [1] | Relative IC50 [2] | SMILES
4 | 100 ng/mL (≈ 255 nM) | 0.01 | CC(C)(C)OC(=O)NNC(=O)N1CC(CCl)c2c1cc(O)c1ccccc21 (racemic)
5 | 50 ng/mL (≈ 168 nM) | 0.02 | CC(C)(C)OC(=O)N1CC2CC23C1=CC(=O)c1ccccc13 (racemic)
